Like-named read-outs stand apart in the source and are kept apart here.
Tests used:
[1] = mice models of obesity; cited from earlier work
TBK1 = TBK1 (Homo sapiens (Human), UniProt Q9UHD2); assay: Lanthascreen TR-FRET kinase inhibition assay, TBK1; assay type: biochemical
How it was run: (§1)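 TR-FRET: terbium phosphospecific antibody detects phosphorylation of 400 nM fluorescein-IkBα peptide, 20 μM ATP, 20 °C, HEPES pH 7.5 with 3% DMSO. IKKε at 2 nM, 1 h reaction; TBK1 at 8 nM, 2.5 h reaction; started by kinase addition.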

IKKε = IKKε (Homo sapiens (Human), UniProt Q14164); assay: Lanthascreen TR-FRET kinase inhibition assay, IKKε; assay type: biochemical
How it was run: as §1

[2] = 20 μM ATP (apparent Km), 8 nM kinase, 2.5 h
[3] = 20 μM ATP (apparent Km), 2 nM kinase, 1 h

IKKε, sequence (Q14164 whole entry): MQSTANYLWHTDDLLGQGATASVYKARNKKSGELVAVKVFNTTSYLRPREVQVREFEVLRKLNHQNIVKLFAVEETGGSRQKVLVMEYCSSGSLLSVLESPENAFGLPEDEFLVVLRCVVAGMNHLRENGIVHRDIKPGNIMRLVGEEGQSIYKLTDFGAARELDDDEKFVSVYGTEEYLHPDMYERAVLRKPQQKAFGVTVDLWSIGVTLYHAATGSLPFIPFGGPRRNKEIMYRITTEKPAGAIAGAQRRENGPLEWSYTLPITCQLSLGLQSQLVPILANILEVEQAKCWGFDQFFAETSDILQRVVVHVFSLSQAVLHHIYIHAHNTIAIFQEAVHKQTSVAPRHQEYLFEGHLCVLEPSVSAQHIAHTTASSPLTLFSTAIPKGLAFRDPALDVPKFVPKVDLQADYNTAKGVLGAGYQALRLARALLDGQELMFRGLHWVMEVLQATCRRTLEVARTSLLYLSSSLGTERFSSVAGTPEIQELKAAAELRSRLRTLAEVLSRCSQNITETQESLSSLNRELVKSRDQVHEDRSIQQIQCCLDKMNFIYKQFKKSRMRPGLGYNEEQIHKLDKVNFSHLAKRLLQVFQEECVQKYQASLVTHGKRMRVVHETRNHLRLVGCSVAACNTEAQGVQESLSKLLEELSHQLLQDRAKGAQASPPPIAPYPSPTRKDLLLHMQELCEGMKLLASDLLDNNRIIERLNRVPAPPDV
TBK1, sequence (Q9UHD2 whole entry): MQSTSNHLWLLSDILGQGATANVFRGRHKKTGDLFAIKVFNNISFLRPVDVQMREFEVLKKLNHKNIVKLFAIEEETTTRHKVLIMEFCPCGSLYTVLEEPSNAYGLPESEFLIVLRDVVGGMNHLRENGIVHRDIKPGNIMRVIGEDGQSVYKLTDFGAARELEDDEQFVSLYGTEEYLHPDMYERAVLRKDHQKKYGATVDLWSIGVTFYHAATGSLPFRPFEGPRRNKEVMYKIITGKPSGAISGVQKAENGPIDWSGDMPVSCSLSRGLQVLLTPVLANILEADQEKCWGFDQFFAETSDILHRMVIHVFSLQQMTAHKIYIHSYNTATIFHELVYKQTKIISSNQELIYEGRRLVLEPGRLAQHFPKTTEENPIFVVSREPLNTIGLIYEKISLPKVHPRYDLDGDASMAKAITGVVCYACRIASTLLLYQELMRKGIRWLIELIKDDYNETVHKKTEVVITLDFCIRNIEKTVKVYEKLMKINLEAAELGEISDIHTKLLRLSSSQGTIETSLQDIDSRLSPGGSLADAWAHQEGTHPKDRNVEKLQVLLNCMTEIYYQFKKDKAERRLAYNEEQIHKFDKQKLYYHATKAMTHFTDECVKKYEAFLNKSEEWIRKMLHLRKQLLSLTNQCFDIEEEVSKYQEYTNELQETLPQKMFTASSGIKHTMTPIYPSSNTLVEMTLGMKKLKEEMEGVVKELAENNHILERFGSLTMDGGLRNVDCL

Row | Structure (SMILES) | IC50 (TBK1; [2]) [nM] | IC50 (IKKε; [3]) [nM] | further results
1 | CC(C)c1ccc2oc3nc(N)c(C(=O)O)cc3c(=O)c2c1 [Amlexanox] | – | – | blood glucose levels [1]: lower blood glucose levels; weight gain [1]: reduce weight gain
2 | N#Cc1cc(-c2ccnc(Nc3cncc(NC(=O)CN4CCOCC4)c3)n2)cnc1N1CC[C@H](F)C1 [DMX-108, N-(5-{4-[5-Cyano-6-((S)-3-fluoro-pyrrolidin-1-yl)-pyridin-3-yl]-pyrimidin-2-ylamino}-pyridin-3-yl)-2-morpholin-4-yl-acetamide] | < 30 | < 100 | –
3 | CC1CN(c2ncc(-c3ccnc(Nc4ccc(CN5CCOCC5)nc4)n3)cc2C#N)CCO1 (stereo not drawn) [DMX-159, 2-(2-Methyl-morpholin-4-yl)-5-[2-(6-morpholin-4-ylmethyl-pyridin-3-ylamino)-pyrimidin-4-yl]-nicotinonitrile] | < 1000 | < 1000 | –
4 | CC(C)(O)CNc1ccc(Nc2nccc(-c3cnc(N4CC[C@H](F)C4)c(C#N)c3)n2)cn1 [DMX-22, 2-((S)-3-Fluoro-pyrrolidin-1-yl)-5-{2-[6-(2-hydroxy-2-methyl-propylamino)-pyridin-3-ylamino]-pyrimidin-4-yl}-nicotinonitrile] | < 30 | < 15 | –
5 | N#Cc1nc(-c2ccnc(Nc3ccc(N4CCOCC4)cc3)n2)ccc1N1CCCC1 [DMX-58, 6-[2-(4-Morpholin-4-yl-phenylamino)-pyrimidin-4-yl]-3-pyrrolidin-1-yl-pyridine-2-carbonitrile] | < 15 | < 15 | –
6 | N#Cc1nc(-c2ccnc(Nc3ccc(CN4CCOCC4)nc3)n2)ccc1N1CCCOCC1 [DMX-164, 6-[2-(6-Morpholin-4-ylmethyl-pyridin-3-ylamino)-pyrimidin-4-yl]-3-[1,4]oxazepan-4-yl-pyridine-2-carbonitrile] | < 100 | < 30 | –
7 | N#Cc1cc(-c2ccnc(Nc3ccc(N4CCNCC4)nc3)n2)cnc1N1CC[C@H](F)C1 [DMX-25, 2-((S)-3-Fluoro-pyrrolidin-1-yl)-5-[2-(6-piperazin-1-yl-pyridin-3-ylamino)-pyrimidin-4-yl]-nicotinonitrile] | < 30 | < 15 | –
8 | Cn1cc(Nc2nccc(-c3cnc(N4C5CCC4CC(O)C5)c(C#N)c3)n2)cn1 (stereo not drawn) [DMX-44, 2-(3-Hydroxy-8-aza-bicyclo[3.2.1]oct-8-yl)-5-[2-(1-methyl-1H-pyrazol-4-ylamino)-pyrimidin-4-yl]-nicotinonitrile] | – | – | IC50 (TBK1): < 15 nM; IC50 (IKKε): < 30 nM
9 | N#Cc1nc(-c2ccnc(Nc3ccc(CN4CCOCC4)nc3)n2)ccc1N1CCC2(COC2)C1 [DMX-165, 6-[2-(6-Morpholin-4-ylmethyl-pyridin-3-ylamino)-pyrimidin-4-yl]-3-(2-oxa-6-aza-spiro[3.4]oct-6-yl)-pyridine-2-carbonitrile] | < 30 | < 15 | –
10 | N#Cc1cc(-c2nc(Nc3ccc(CN4CCOCC4)nc3)ncc2F)cnc1N1CCCOCC1 [DMX-87, 5-[5-Fluoro-2-(6-morpholin-4-ylmethyl-pyridin-3-ylamino)-pyrimidin-4-yl]-2-[1,4]oxazepan-4-yl-nicotinonitrile] | < 100 | < 100 | –
11 | Cn1cc(Nc2nccc(-c3ccc(N4CC[C@H](O)C4)c(C#N)n3)n2)cn1 [DMX-59, 3-((S)-3-Hydroxy-pyrrolidin-1-yl)-6-[2-(1-methyl-1H-pyrazol-4-ylamino)-pyrimidin-4-yl]-pyridine-2-carbonitrile] | < 100 | < 100 | –
12 | CN1CCC(NC(=O)c2cccc(Nc3nccc(-c4cnc(N[C@@H]5CCOC5)c(C#N)c4)n3)c2)CC1 [DMX-115, 3-(4-{5-Cyano-6-[(R)-(tetrahydro-furan-3-yl)amino]-pyridin-3-yl}-pyrimidin-2-ylamino)-N-(1-methyl-piperidin-4-yl)-benzamide] | < 1000 | < 1000 | –
13 | N#Cc1cc(-c2ccnc(Nc3ccc(CN4CCNC(=O)C4)nc3)n2)cnc1N1CC[C@H](F)C1 [DMX-102, 2-((S)-3-Fluoro-pyrrolidin-1-yl)-5-{2-[6-(3-oxo-piperazin-1-ylmethyl)-pyridin-3-ylamino]-pyrimidin-4-yl}-nicotinonitrile] | < 15 | < 15 | –
14 | N#Cc1cc(-c2ccnc(Nc3ccn[nH]3)n2)cnc1N1CC[C@H](F)C1 [DMX-64, 2-((S)-3-Fluoro-pyrrolidin-1-yl)-5-[2-(2H-pyrazol-3-ylamino)-pyrimidin-4-yl]-nicotinonitrile] | < 1000 | < 100 | –
15 | COCC1CCN(c2ncc(-c3ccnc(Nc4ccc(CN5CCOCC5)nc4)n3)cc2C#N)C1 (stereo not drawn) [DMX-160, 2-(3-Methoxymethyl-pyrrolidin-1-yl)-5-[2-(6-morpholin-4-ylmethyl-pyridin-3-ylamino)-pyrimidin-4-yl]-nicotinonitrile] | < 1000 | < 100 | –

From US9433622B2, “Pyrimidine compounds useful in the treatment of diseases mediated by IKKE and/or TBK1 mechanisms” (DOMAINEX LIMITED, priority 2013, dated 2016)
